Data published in paper PMC7508948, “Identification and validation of novel and more effective choline kinase inhibitors against Streptococcus pneumoniae” (Scientific Reports, 2020).
Like-named read-outs stand apart in the source and are kept apart here.

Experiments:
S. pneumoniae [1] = experiment: Detergent and phosphate induced lysis of cells grown with 0.5 MIC inhibitor; type: cell-based, Streptococcus pneumoniae; conditions: cells grown in presence of 0.5 MIC
Procedure: (§1) Figure 3 Effect of drugs on the autolytic process. (A) Percent changes in O.D. were measured in cultures of S. pneumoniae exposed to various concentrations of drugs expressed as multiples of MIC. Percent changes were calculated by comparing initial and final O.D. values. (B) O.D. changes in cells treated with vancomycin (VAN) in the presence and absence of HC-3 (HC3), MN58b (MN), and RSM-932A (RSM). (C) Detergent induced lysis of cells grown to saturation in the presence of 0.5 MIC MN58b and RSM-932A. (D) Phosphate induced lysis of cells grown to saturation in the presence of 0.5 MIC MN58b and RSM-932A.
Given the observation that MN58b and RSM-932A were sChoK inhibitors, our expectation was that cells treated with these inhibitors would show a decrease in overall LTA content because a decrease in phosphocholine availability would reduce the overall production of LTA residues and, by extension, LTA molecules. A reduction in LTA content, in turn, should help desensitize cells to autolytic induction. Although autolysin proteins would be released, they would not be able to dock on the cell surface because the autolysin choline binding domains would have fewer choline containing LTA molecules with which to interact. Both LTA reduction and cell […] had previously been observed with HC-3[17].

sChoK [2] = biological target: T1, sChoK (Streptococcus pneumoniae, UniProt Q8DPI4); experiment: Colorimetric choline kinase assay with S. pneumoniae extracts; type: biochemical; conditions: choline consumption
T1 sequence (Q8DPI4 entry or part of it): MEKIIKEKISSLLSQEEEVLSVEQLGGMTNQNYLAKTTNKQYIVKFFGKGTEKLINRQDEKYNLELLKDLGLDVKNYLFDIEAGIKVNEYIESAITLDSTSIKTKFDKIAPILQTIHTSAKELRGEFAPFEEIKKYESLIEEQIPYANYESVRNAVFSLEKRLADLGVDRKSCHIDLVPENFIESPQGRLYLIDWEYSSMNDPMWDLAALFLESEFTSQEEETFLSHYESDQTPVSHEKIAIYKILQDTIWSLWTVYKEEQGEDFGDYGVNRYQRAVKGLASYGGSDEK
Text: (§2) When using cell extracts such as BL21 (DE3) extracts containing sChoK or S. pneumoniae extracts as the enzyme source, a colorimetric method was used to quantify Cho consumption and PCho production as described previously.
In light of the inconsistent results between sChoK inhibition by MN58b and RSM-932A which are both known choline kinase inhibitors, we repeated the colorimetric experiments using S. pneumoniae extracts as the source of sChoK, The goal of the experiment was to determine whether or not differences in sChoK inhibition could be detected in a more native environment than that provided by extracts of E. coli overexpressing sChoK or purified sChoK. […] This agonism was confirmed by mass spectrometry (data not shown) and was also found to be ATP dependent, thereby supporting the inference that RSM-932A was still affecting sChoK activity, although in the opposite direction.

sChoK [3] = biological target: T1, sChoK; experiment: IC50 by LDH/PK with purified recombinant sChoK; type: biochemical
Procedure: Purified sChoK was used in these assays. Steady-state enzymatic assays were monitored with the pyruvate kinase/lactate dehydrogenase (PK/LDH) reaction. The steady-state rate of ADP formation was calculated using an extinction coefficient of 6,200 M^−1 cm^−1 to determine linear reductions in NADH concentrations that were observed by absorbance at 340 nm. Measurements were carried out at 25 °C in a UV-Star 96-well plate (Greiner) placed in a Synergy HT microplate reader (Biotek). Each well contained 200 µL of a solution containing 22 nM sChoK enzyme, 100 mM Tris pH 8, 10 mM MgCl2, 150 mM NaCl, 150 mM KCl, […], 0.66 mM phosphoenolpyruvate, 20 units of LDH, and 10 units of PK, choline. ATP. […] The kcat was calculated by dividing the Vmax by the enzyme concentration.
Using the conditions described above, the concentration of choline was set to the Km and increasing amounts of inhibitor were tested. Percent inhibition was determined. The IC50 was determined as the concentration of inhibitor required to reach 50% inhibition.

S. pneumoniae R6 cells = experiment: Western blot detection of lipoteichoic acid (LTA); type: cell-based, Streptococcus pneumoniae; conditions: cells grown to saturation with 0.5 MIC
Procedure: R6 cells were cultured to saturation in either BHI-cat alone or BHI-cat 0.5 MIC of MN58b or RSM-932A. One milliliter (1 mL) of cell samples was centrifuged at 3,000g, sonicated 3 × 2 min on ices. Western blots were performed as described[3] while total protein on the membrane was measured by fluorescence according to Quickstain instructions.
In order to quantify LTA production, western blots were performed on extracts of cells grown to saturation in the presence of 0.5 MIC MN58b or RSM-932A. LTA band patterns clearly differed between treatments. […] It is important to note that each size band in an LTA western blot differs from the lower one by a single LTA residue (Fig. 4A)[19].

sChoK [4] = biological target: T1, sChoK; experiment: IC50 by colorimetric method with BL21 (DE3) extracts expressing recombinant sChoK; type: biochemical
Procedure: as §2
The IC50s of each drug against sChoK were measured using two methods: the indirect ldh/pk method that relied on recombinant sChoK and which indirectly measured consumption of ATP[14] and a previously reported colorimetric method that relied on BL21 (DE3) extracts expressing recombinant sChoK, which directly measured the consumption of choline and the production of phosphocholine. Inhibitors were similarly effective in a complex cell extract and in a simplified system relying on a purified enzyme. […] RSM-932A was stronger that MN58b by 1–2 orders of magnitude.

sChoK [5] = biological target: T1, sChoK; experiment: Substrate-inhibitor competition (competitivity) by LDH/PK; type: biochemical
Procedure: The mechanism of action of the inhibitors with respect to each substrate was determined using a previously described method[13],[14]. Briefly, using the IC50 of each inhibitor determined at the Km of choline, the concentration of one substrate was kept constant, and initial velocities were measured while varying the second substrate in the presence and absence of the inhibitor. The percentage of inhibition (%I) was determined by dividing each initial velocity in the presence of the inhibitor with its corresponding initial velocity in the absence of compound. %I was plotted against concentration and fitted using a two-parameter-fit nonlinear regression algorithm of GnuPlot v 4.3 into Eq. (2).2 %I=100×(([I]/Ki+[S][I]/αKsKi/(1+[S]/Ks+[I]/Ki+[S][I]/αKsKi)) where [S] is the concentration of the varied substrate, [I] is the concentration of inhibitor, Ks is the dissociation constant of the substrate (assumed to be equal to the Km), Ki is the dissociation constant of the inhibitor, and α is a numerical constant that measures the effect the substrate has on the binding of the inhibitor and vice versa.
A mechanistic analysis was performed for each inhibitor by performing steady-state enzymatic reactions with sChoK in which one substrate was varied while the other substrate was fixed both in assays with and without inhibitor fixed at a concentration equal to its IC50. sChoK inhibition was calculated as a percentage (%I) calculated by dividing the initial velocity at each substrate concentration with inhibitor by counterpart initial velocities in the absence of inhibitor. %I values were plotted against substrate concentration. The resulting data was fitting to an Eq. (2) and Ki and α values calculated.

S. pneumoniae [6] = experiment: Interaction with vancomycin-provoked cell lysis; type: cell-based, Streptococcus pneumoniae; conditions: O.D. changes with vancomycin in presence of inhibitor
Procedure: as §1
Autolysis is a process of cell lysis and death that is mediated by LTAs via choline binding autolysins[19] such as LytA. […] In light of the non-specificity observed with HC-3 (being able to interfere with both ChoKs and the autolytic process), it seemed logical to check the specificity of MN58b and RSM-932A for sChoK inhibition. The interaction of MN58b, RSM-932A, and HC-3 with bacteriolytic antibiotic vancomycin was determined (Fig. 3B). […] The non-specificity of HC-3 may help to explain its weakness against sChoK.

S. pneumoniae [7] = experiment: Percent O.D. changes of cultures exposed to multiples of MIC (bacteriostatic/bacteriolytic); type: cell-based, Streptococcus pneumoniae; conditions: cultures grown to O.D. 0.500, concentrations as multiples of MIC
Procedure: as §1

S. pneumoniae R6 strain [8] = experiment: Minimum inhibitory concentration (MIC) and minimum lethal concentration (MLC) in culture; type: cell-based, Streptococcus pneumoniae; conditions: for MLC: S. pneumoniae R6, 99.9% of cells killed by CFU counts; for MIC: Streptococcus pneumoniae, R6STRAIN, S. pneumoniae R6, BHI-CAT, O.D.610 of 0 at end of culture
Procedure: Seven μL of a glycerol stock of the S. pneumoniae R6 strain was used to inoculate 7 mL of Brain Heart Infusion broth (BHI, Accumedia, Sydney, Australia) supplemented with 5 units/mL catalase (BHI-CAT). This starter culture was incubated at 37 °C in a water bath until an optical density at 610 nm (OD610) […]. Forty μL of this starter culture was used to inoculate 40 mL of BHI-CAT media with or without varying concentrations of inhibitor.
MIC was determined as the concentration inhibitor at which an O.D.610 of 0 was measured at the end of culture time. MLC was defined as the concentration at which 99.9% of cells were killed at the end of culturing time as determined by CFU counts using Meuller–Hinton plates.

S. pneumoniae R6 strain [9] = system: S. pneumoniae R6 strain; design: method as in PMID 28946671; conditions: previously reported; cited from earlier work
sChoK [10] = biological target: T1, sChoK; design: method as in doi:10.30721/fsab2018.v1.i2.40; conditions: previously reported; read-out: IC50 against sChoK; cited from earlier work

Structure (SMILES)	Sensitivity of cells to induced autolysis (S. pneumoniae [1])	Effect on choline kinase activity in S. pneumoniae extracts (sChoK [2])	IC50 (sChoK [3]) [µM]	LTA size pattern (S. pneumoniae R6 cells)	Total LTA production (S. pneumoniae R6 cells)	IC50 (sChoK [4]) [µM]	Kminh/Kmfree (sChoK [5]; (A) inhibitor vs ATP)	Mechanism of Inhibition (sChoK [5]; (A) inhibitor vs ATP)	Vmaxinh/Vmaxfree (sChoK [5]; (A) inhibitor vs ATP)	α (sChoK [5]; (A) inhibitor vs ATP)	Mechanism of Inhibition (sChoK [5]; (B) inhibitor vs choline)	Vmaxinh/Vmaxfree (sChoK [5]; (B) inhibitor vs choline)	Ki (sChoK [5]; (A) inhibitor vs ATP) [µM]	Ki (sChoK [5]; (B) inhibitor vs choline) [µM]	Effect on cell lysis provoked by vancomycin (S. pneumoniae [6])	Bacteriostatic or bacteriolytic action (S. pneumoniae [7])	MLC (S. pneumoniae R6 strain [8]) [µM]	MIC (S. pneumoniae R6 strain [8]) [µM]	other results
CN(C)c1cc[n+](Cc2ccc(CCCCc3ccc(C[n+]4ccc(N(C)C)cc4)cc3)cc2)cc1 [MN58b, 1,4-[4–4′-Bis-{[4-(dimethylamine)pyridinium-1-yl]methyl}diphenyl]butane dibromide]	primed the cells to be autolyzed	continued to function as an inhibitor of choline kinase activity	645	marked increase in the smaller sizes of LTA	marked increase in total LTA production	225	3.48	Mixed	0.76	6.0 ± 2.2	Mixed	0.69	182 ± 28.1	124 ± 19.2	minimal to no effect	bacteriostatic up to a concentration of 50 × MIC after which they become bacteriolytic	20	10	Kminh/Kmfree (sChoK [5]; (B) inhibitor vs choline): 2.3
CN(c1ccc(Cl)cc1)c1cc[n+](Cc2ccc(-c3ccc(C[n+]4ccc(N(C)c5ccc(Cl)cc5)c5ccccc54)cc3)cc2)c2ccccc12.[Br-].[Br-] [RSM-932A, 1,1′-([1,1′-biphenyl]-4,4′-diylbis(methylene))bis(4-((4-chlorophenyl)(methyl)amino)quinolin-1-ium) bromide]	equally sensitive to autolysis as untreated controls	somewhat inhibitory at lower concentrations, it functioned as an agonist of choline kinase activity at higher concentrations	22	larger size polymers were favored	overall production remained unchanged	0.5	0.92	Noncompetitive	0.61	1.1 ± 0.17	Mixed	0.76	35.8 ± 3.2	10.6 ± 0.9	minimal to no effect	bacteriostatic up to a concentration of 50 × MIC after which they become bacteriolytic	1.6	0.4	α (sChoK [5]; (B) inhibitor vs choline): 8.1 ± 1.8
C[N+]1(C)CCOC(O)(c2ccc(-c3ccc(C4(O)C[N+](C)(C)CCO4)cc3)cc2)C1 (centres unmarked) [HC-3, Hemicholinium-3]	–	–	–	–	–	–	–	–	–	–	–	–	–	–	prevented cell lysis provoked by vancomycin	–	–	–	MIC (S. pneumoniae R6 strain [9]): 5,400 µM; IC50 (sChoK [10]): 2700 µM
